Measurements published in ChEMBL document CHEMBL1137354, “Potent, selective, and orally efficacious antagonists of melanin-concentrating hormone receptor 1” (J Med Chem, 2006).

Assays:
[1] = target: Melanin-concentrating hormone receptor 1 (Homo sapiens, UniProt Q99705); test: Antagonist activity against human MCHR1 expressed in CHO cells by Gal4/Elk1-Luc reporter assay; assay type: functional, cell-based
[2] = Oral bioavailability in rat at 3 mg/kg, iv and 10 mg/kg, po; assay type: ADME, organism-based; conditions: in vivo
[3] = Half life in rat at 3 mg/kg, iv; assay type: ADME, organism-based; design: dose 3 mg/kg, route intravenous; conditions: in vivo
[4] = Volume of distribution in rat at 3 mg/kg, iv and 10 mg/kg, po; assay type: ADME, organism-based; conditions: in vivo, read-out: Vss
[5] = Total clearance in rat at 3 mg/kg, iv and 10 mg/kg, po; assay type: ADME, organism-based; conditions: in vivo
Mus musculus [6] = test: Concentration in DIO AKR/J mouse serum at 10 mg/kg, po; assay type: ADME, organism-based; design: dose 10 mg/kg, route oral; conditions: in vivo
Mus musculus [7] = test: Concentration in DIO AKR/J mouse serum at 3 mg/kg, po; assay type: ADME, organism-based; design: dose 3 mg/kg, route oral; conditions: in vivo
[8] = Ratio of drug concentration in brain to serum in DIO AKR/J mouse at 3 mg/kg, po
[9] = Ratio of drug concentration in brain to serum in DIO AKR/J mouse at 10 mg/kg, po
Mus musculus [10] = test: Reduction in body weight of DIO AKR/J mouse relative to control at 1 mg/kg/day, po after 26 days; assay type: functional; design: scale not given: the % may be the effect or the level left
Mus musculus [11] = test: Reduction in body weight of DIO AKR/J mouse relative to control at 3 mg/kg/day, po after 26 days; assay type: functional; design: scale not given: the % may be the effect or the level left
Mus musculus [12] = test: Reduction in body weight of DIO AKR/J mouse relative to control at 10 mg/kg/day, po after 26 days; assay type: functional; design: scale not given: the % may be the effect or the level left
Mus musculus [13] = test: Concentration in DIO AKR/J mouse brain at 1 mg/kg, po; assay type: ADME, organism-based; design: dose 1 mg/kg, route oral; conditions: in vivo
Mus musculus [14] = test: Concentration in DIO AKR/J mouse brain at 10 mg/kg, po; assay type: ADME, organism-based; design: dose 10 mg/kg, route oral; conditions: in vivo
Mus musculus [15] = test: Concentration in DIO AKR/J mouse brain at 3 mg/kg, po; assay type: ADME, organism-based; design: dose 3 mg/kg, route oral; conditions: in vivo
Mus musculus [16] = test: Concentration in DIO AKR/J mouse serum at 1 mg/kg, po; assay type: ADME, organism-based; design: dose 1 mg/kg, route oral; conditions: in vivo
[17] = Ratio of drug concentration in brain to serum in DIO AKR/J mouse at 1 mg/kg, po

Chain of Melanin-concentrating hormone receptor 1 (Q99705 whole entry, the tested form may be a part): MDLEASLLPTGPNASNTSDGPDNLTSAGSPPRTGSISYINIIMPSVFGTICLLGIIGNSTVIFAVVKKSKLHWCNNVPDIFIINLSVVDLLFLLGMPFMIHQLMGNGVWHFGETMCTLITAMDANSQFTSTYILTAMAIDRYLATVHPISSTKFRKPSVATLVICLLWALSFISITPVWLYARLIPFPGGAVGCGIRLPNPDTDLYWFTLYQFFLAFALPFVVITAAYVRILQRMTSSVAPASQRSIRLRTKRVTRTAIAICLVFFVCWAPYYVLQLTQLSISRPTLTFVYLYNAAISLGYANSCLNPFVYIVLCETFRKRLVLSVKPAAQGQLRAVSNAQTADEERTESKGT

IC50 [1] | Structure (SMILES) | other results
7.7 nM | CN(C)CC1COc2cc(-n3cnc4cc(-c5ccc(Cl)cc5)sc4c3=O)ccc2O1 (configuration not stated) | –
3.2 nM | CN(C)C[C@@H]1COc2cc(-n3cnc4cc(-c5ccc(Cl)cc5)sc4c3=O)ccc2O1 | –
2.3 nM | O=c1c2sc(-c3ccc(Cl)cc3)cc2ncn1-c1ccc2c(c1)NCC(CN1CCCC1)O2 (configuration not stated) | –
3.2 nM | CN(C)CC1CNc2cc(-n3cnc4cc(-c5ccc(Cl)cc5)sc4c3=O)ccc2O1 (configuration not stated) | bioavailability [2]: 75%; half-life [3]: 8 h; Vd [4]: 27 L/kg; clearance [5]: 88 mL/min/kg
6920 nM | CN(C)CC1CN(S(=O)(=O)c2ccccc2)c2cc(-n3cnc4cc(-c5ccc(Cl)cc5)sc4c3=O)ccc2O1 (configuration not stated) | –
4170 nM | CN(C)CC1CN(S(C)(=O)=O)c2cc(-n3cnc4cc(-c5ccc(Cl)cc5)sc4c3=O)ccc2O1 (configuration not stated) | –
3.5 nM | CN1CCN(CC2CNc3cc(-n4cnc5cc(-c6ccc(Cl)cc6)sc5c4=O)ccc3O2)CC1 (configuration not stated) | –
0.74 nM | CN(C)Cc1ccc2cc(-n3cnc4cc(-c5ccc(Cl)cc5)sc4c3=O)ccc2n1 | –
25 nM | CN(C)C[C@H]1COc2cc(-n3cnc4cc(-c5ccc(Cl)cc5)sc4c3=O)ccc2O1 | –
24 nM | O=c1c2sc(-c3ccc(Cl)cc3)cc2ncn1-c1ccc2c(c1)OC[C@H](CN1CCCC1)O2 | bioavailability [2]: 65%; half-life [3]: 6.1 h; Vd [4]: 22 L/kg; clearance [5]: 66 mL/min/kg
3.4 nM | O=c1c2sc(-c3ccc(Cl)cc3)cc2ncn1-c1ccc2c(c1)NCC(CN1CC[C@@H](O)C1)O2 (some centres not stated) | –
8.5 nM | O=c1c2sc(-c3ccc(Cl)cc3)cc2ncn1-c1ccc2c(c1)NCC(CN1CCOCC1)O2 (configuration not stated) | –
5.3 nM | O=c1c2sc(-c3ccc(Cl)cc3)cc2ncn1-c1ccc2c(c1)NCC(CN1CC[C@H](O)C1)O2 (some centres not stated) | –

Second part, the compound before the results:

Structure (SMILES) | IC50 [1] | other results
COc1ccc(-c2cc3ncn(-c4ccc5nc(CN6CCOCC6)ccc5c4)c(=O)c3s2)cc1 | 31 nM | –
O=c1c2sc(-c3ccc(Cl)cc3)cc2ncn1-c1ccc2nc(CN3CCOCC3)ccc2c1 | 4.9 nM | –
O=c1c2sc(-c3ccc(Cl)cc3)cc2ncn1-c1ccc2nc(CN3CCC(c4ccc(C(F)(F)F)cc4)CC3)ccc2c1 | 6.1 nM | bioavailability [2]: 18%; half-life [3]: 8.5 h; Vd [4]: 1.1 L/kg; clearance [5]: 3.7 mL/min/kg
O=c1c2sc(-c3ccc(Cl)cc3)cc2ncn1-c1ccc2nc(CN3CCN(CCN4CCOCC4)CC3)ccc2c1 | 19 nM | –
CN1CCN(Cc2ccc3cc(-n4cnc5cc(-c6ccc(Cl)cc6)sc5c4=O)ccc3n2)CC1 | 3.1 nM | Drug uptake (Mus musculus [6]): 414 ng/mL; Drug uptake (Mus musculus [7]): 178 ng/mL; bioavailability [2]: 98%; half-life [3]: 7.7 h; Vd [4]: 19 L/kg; clearance [5]: 39 mL/min/kg; Kp [8]: 31; Kp [9]: 31; Activity (Mus musculus [10]): 4.8%; Activity (Mus musculus [11]): 9.4%; Activity (Mus musculus [12]): 16.9%; Drug uptake (Mus musculus [13]): 1421 ng/g; Drug uptake (Mus musculus [14]): 13093 ng/g; Drug uptake (Mus musculus [15]): 5508 ng/g; Drug uptake (Mus musculus [16]): 44 ng/mL; Kp [17]: 31
CN(Cc1ccc2cc(-n3cnc4cc(-c5ccc(Cl)cc5)sc4c3=O)ccc2n1)c1ccccc1 | 87 nM | –
O=c1c2sc(-c3ccc(Cl)cc3)cc2ncn1-c1ccc2nc(CN3CCC(CCN4CCCC4)CC3)ccc2c1 | 1.5 nM | –
O=c1c2sc(-c3ccc(Cl)cc3)cc2ncn1-c1ccc2nc(CN3CCC(c4ccc(F)cc4)CC3)ccc2c1 | 3.1 nM | bioavailability [2]: 30%; half-life [3]: 16 h; Vd [4]: 2.3 L/kg; clearance [5]: 2.9 mL/min/kg
O=c1c2sc(-c3ccc(Cl)cc3)cc2ncn1-c1ccc2nc(CN3CCN(c4ccccc4)CC3)ccc2c1 | 3.8 nM | –
O=c1c2sc(-c3ccc(Cl)cc3)cc2ncn1-c1ccc2nc(CN3CCCC3)ccc2c1 | 1 nM | –
O=c1c2sc(-c3ccccc3)cc2ncn1-c1ccc2nc(CN3CCOCC3)ccc2c1 | 794 nM | –
O=c1c2sc(-c3ccc(Cl)cc3)cc2ncn1-c1ccc2ncccc2c1 | 63 nM | –
CCN1CCN(Cc2ccc3cc(-n4cnc5cc(-c6ccc(Cl)cc6)sc5c4=O)ccc3n2)CC1 | 6.2 nM | –
CCC(C)c1ccc(-c2cc3ncn(-c4ccc5nc(CN6CCOCC6)ccc5c4)c(=O)c3s2)cc1 (configuration not stated) | 200 nM | –
O=c1c2sc(-c3ccc(Br)cc3)cc2ncn1-c1ccc2nc(CN3CCOCC3)ccc2c1 | 40 nM | –
O=c1c2sc(-c3ccccc3Cl)cc2ncn1-c1ccc2nc(CN3CCOCC3)ccc2c1 | 1260 nM | –
O=c1c2sc(-c3ccc(Cl)cc3)cc2ncn1-c1ccc2c(c1)OC[C@@H](CN1CCCC1)O2 | 7 nM | –
O=c1c2sc(-c3ccc(Cl)cc3)cc2ncn1-c1ccc2nc(CN3CCC(N4CCCC4)CC3)ccc2c1 | 5.6 nM | –
O=c1c2sc(-c3ccc(Cl)cc3)cc2ncn1-c1ccc2nc(CN3CCC(c4ccccc4)CC3)ccc2c1 | 1.3 nM | bioavailability [2]: 19%; half-life [3]: 8 h; Vd [4]: 4.3 L/kg; clearance [5]: 11 mL/min/kg
N#Cc1ccc(-c2cc3ncn(-c4ccc5nc(CN6CCOCC6)ccc5c4)c(=O)c3s2)cc1 | 478 nM | –
O=c1c2sc(-c3ccc(Cl)cc3)cc2ncn1-c1ccc2nc(CN3CCN(CCCN4CCOCC4)CC3)ccc2c1 | 37 nM | –
O=c1c2sc(-c3ccc(C(F)(F)F)cc3)cc2ncn1-c1ccc2nc(CN3CCOCC3)ccc2c1 | 36 nM | –
O=c1c2sc(-c3ccc(Cl)cc3)cc2ncn1-c1ccc2nc(CO)ccc2c1 | 3.5 nM | –
O=c1c2sc(-c3ccc(F)cc3)cc2ncn1-c1ccc2nc(CN3CCOCC3)ccc2c1 | 501 nM | –
O=c1c2sc(-c3cccc(Cl)c3)cc2ncn1-c1ccc2nc(CN3CCOCC3)ccc2c1 | 3980 nM | –
O=c1c2sc(-c3ccc(Cl)cc3)cc2ncn1-c1ccc2nc(Cn3ccnc3)ccc2c1 | 2 nM | –
O=c1c2sc(-c3ccc(Cl)cc3)cc2ncn1-c1ccc2nc(CN3CCCCC3)ccc2c1 | 0.89 nM | –
CC(C)(C)c1ccc(-c2cc3ncn(-c4ccc5nc(CN6CCOCC6)ccc5c4)c(=O)c3s2)cc1 | 501 nM | –
